# Data published in US20250276983A1, “COMPOUNDS AND METHODS FOR MODULATING HER2” (IAMBIC THERAPEUTICS, INC., priority 2022, published 2025).
# Read-outs that look alike come from different tables or passages of the source.
# Experiments:
# Type in all cases: cell-based
# BaF3_HER2YVMA cells = assay: Cell growth inhibition assay, BaF3_HER2YVMA; details: BaF3_HER2YVMA cells, 3 days treatment, CellTiterGlo 2.0, read-out: HER2-YVMA IC50 (nM), cell growth inhibition
# BaF3_EGFRWT cells = assay: Cell growth inhibition assay, BaF3_EGFRWT; details: 80 ng/mL recombinant human EGF, 3 days treatment, CellTiterGlo 2.0, read-out: EGFR WT IC50 (nM), cell growth inhibition
# BaF3_HER2WT cells = assay: Cell growth inhibition assay, BaF3_HER2WT; details: 3 days treatment, CellTiterGlo 2.0, read-out: HER2 WT IC50 (nM), cell growth inhibition
smiles,measurement,setting,value
"Cc1cc(Nc2ncnn3ccc(C4CN(C(=O)/C=C/CN5CCOCC5)C4)c23)ccc1Oc1ccn2ncnc2c1 [Example 37, (E)-1-(3-(4-((4-([1,2,4]triazolo[1,5-a]pyridin-7-yloxy)-3-methylphenyl)amino)pyrrolo[2,1-f][1,2,4]triazin-5-yl)azetidin-1-yl)-4-morpholinobut-2-en-1-one]",IC50,BaF3_HER2YVMA cells; 72 h,< 200 nM
same,IC50,BaF3_EGFRWT cells; 72 h,1500 to 5000 nM
same,IC50,BaF3_HER2WT cells; 72 h,< 200 nM
"Cc1cc(Nc2ncnn3ccc(C4CCN(C(=O)/C=C/CN(C)C)CC4(F)F)c23)ccc1Oc1ccn2ncnc2c1 (stereo not drawn) [Example 176, (E)-1-(4-(4-((4-([1,2,4]triazolo[1,5-a]pyridin-7-yloxy)-3-methylphenyl)amino)pyrrolo[2,1-f][1,2,4]triazin-5-yl)-3,3-difluoropiperidin-1-yl)-4-(dimethylamino)but-2-en-1-one]",IC50,BaF3_HER2YVMA cells; 72 h,< 200 nM
same,IC50,BaF3_EGFRWT cells; 72 h,1500 to 5000 nM
same,IC50,BaF3_HER2WT cells; 72 h,< 200 nM
"COC1CN(C/C=C/C(=O)N2CCC(c3ccn4ncnc(Nc5ccc(Oc6ccn7ncnc7c6)c(C)c5)c34)CC2)C1 [Example 117, (E)-1-(4-(4-((4-([1,2,4]triazolo[1,5-a]-207-midazol-7-yloxy)-3-methylphenyl)amino)pyrrolo[2,1-f][1,2,4]triazin-5-yl)piperidin-1-yl)-4-(3-methoxyazetidin-1-yl)but-2-en-1-one]",IC50,BaF3_HER2YVMA cells; 72 h,< 200 nM
same,IC50,BaF3_EGFRWT cells; 72 h,1500 to 5000 nM
same,IC50,BaF3_HER2WT cells; 72 h,< 200 nM
"C=CC(=O)N1C[C@H]2C[C@@H]1C[C@@H]2c1ccn2ncnc(Nc3ccc(Oc4ccn5ncnc5c4)c(C)c3)c12 [Example 141, 1-[(1S,4S,5S)-5-{4-[(3-methyl-4-{[1,2,4]triazolo[1,5-a]pyridin-7-yloxy}phenyl)amino]pyrrolo[2,1-f][1,2,4]triazin-5-yl}-2-azabicyclo[2.2.1]heptan-2-yl]prop-2-en-1-one]",IC50,BaF3_HER2YVMA cells; 72 h,500 to 1500 nM
same,IC50,BaF3_EGFRWT cells; 72 h,1500 to 5000 nM
same,IC50,BaF3_HER2WT cells; 72 h,200 to 500 nM
"Cc1cc(Nc2ncnn3ccc(C4CN(C(=O)/C=C/C5CCCN5C)C4)c23)ccc1Oc1ccn2ncnc2c1 (single isomer, unassigned) [Examples 171 and 172, second eluting isomer, (E)-1-(3-(4-((4-([1,2,4]triazolo[1,5-a]pyridin-7-yloxy)-3-methylphenyl)amino)pyrrolo[2,1-f][1,2,4]triazin-5-yl)azetidin-1-yl)-3-(1-methylpyrrolidin-2-yl)prop-2-en-1-one]",IC50,BaF3_HER2YVMA cells; 72 h,< 200 nM
same,IC50,BaF3_EGFRWT cells; 72 h,1500 to 5000 nM
same,IC50,BaF3_HER2WT cells; 72 h,< 200 nM
"C=C(C(=O)O)C(=O)N1CCC(c2ccn3ncnc(Nc4ccc(Oc5ccn6ncnc6c5)c(C)c4)c23)CC1 [Example 20, 2-(4-(4-((4-([1,2,4]triazolo[1,5-a]pyridin-7-yloxy)-3-methylphenyl)amino)pyrrolo[2,1-f][1,2,4]triazin-5-yl)piperidine-1-carbonyl)acrylic acid]",IC50,BaF3_HER2YVMA cells; 72 h,1500 to 5000 nM
same,IC50,BaF3_EGFRWT cells; 72 h,1500 to 5000 nM
same,IC50,BaF3_HER2WT cells; 72 h,1500 to 5000 nM
"C=CC(=O)N1C[C@H]2C[C@@H]1C[C@H]2c1ccn2ncnc(Nc3ccc(Oc4ccn5ncnc5c4)c(C)c3)c12 (relative stereo) [Example 104, Rel-1-[(1S,4S,5R)-5-{4-[(3-methyl-4-{[1,2,4]triazolo[1,5-a]pyridin-7-yloxy}phenyl)amino]pyrrolo[2,1-f][1,2,4]triazin-5-yl}]-2-azabicyclo[2.2.1]heptan-2-yl]prop-2-en-1-one]",IC50,BaF3_HER2YVMA cells; 72 h,1500 to 5000 nM
same,IC50,BaF3_EGFRWT cells; 72 h,1500 to 5000 nM
same,IC50,BaF3_HER2WT cells; 72 h,500 to 1500 nM
"Cc1cc(Nc2ncnn3ccc(C4CCCN(C(=O)/C=C/CN(C)C)C4)c23)ccc1Oc1ccn2ncnc2c1 (single isomer, unassigned) [Examples 107 and 108, second eluting isomer, (E)-1-(3-(4-((4-([1,2,4]triazolo[1,5-a]pyridin-7-yloxy)-3-methylphenyl)amino)pyrrolo[2,1-f][1,2,4]triazin-5-yl)piperidin-1-yl)-4-(dimethylamino)but-2-en-1-one]",IC50,BaF3_HER2YVMA cells,1500 to 5000 nM
same,IC50,BaF3_EGFRWT cells,1500 to 5000 nM
same,IC50,BaF3_HER2WT cells,500 to 1500 nM
"Cc1cc(Nc2ncnn3ccc(C4CC5CCC4CN5C(=O)/C=C/CN(C)C)c23)ccc1Oc1ccn2ncnc2c1 (single isomer, unassigned) [Examples 137 and 138, second eluting isomer, (E)-1-(5-(4-((4-([1,2,4]triazolo[1,5-a]pyridin-7-yloxy)-3-methylphenyl)amino)pyrrolo[2,1-f][1,2,4]triazin-5-yl)-2-azabicyclo[2.2.2]octan-2-yl)-4-(dimethylamino)but-2-en-1-one]",IC50,BaF3_HER2YVMA cells; 72 h,1500 to 5000 nM
same,IC50,BaF3_EGFRWT cells; 72 h,1500 to 5000 nM
same,IC50,BaF3_HER2WT cells; 72 h,500 to 1500 nM
"Cc1cc(Nc2ncnn3ccc(C4CN(C(=O)/C(C#N)=C/C(C)(C)C)C4)c23)ccc1Oc1ccn2ncnc2c1 [Example 89, (E)-2-(3-(4-((4-([1,2,4]triazolo[1,5-a]pyridin-7-yloxy)-3-methylphenyl)amino)pyro-lo[2,1-f][1,2,4]triazin-5-yl)azetidine-1-carbonyl)-4,4-dimethylpent-2-enenitrile]",IC50,BaF3_HER2YVMA cells; 72 h,1500 to 5000 nM
same,IC50,BaF3_EGFRWT cells; 72 h,1500 to 5000 nM
same,IC50,BaF3_HER2WT cells; 72 h,1500 to 5000 nM
"Cc1cc(Nc2ncnn3ccc(C4CN(C(=O)/C=C/CN5CCC(F)CC5)C4)c23)ccc1Oc1ccn2ncnc2c1 [Example 62, (E)-1-(3-(4-((4-([1,2,4]triazolo[1,5-a]pyridin-7-yloxy)-3-methylphenyl)amino)pyrrolo[2,1-f][1,2,4]triazin-5-yl)azetidin-1-yl)-4-(4-fluoropiperidin-1-yl)but-2-en-1-one]",IC50,BaF3_HER2YVMA cells; 72 h,< 200 nM
same,IC50,BaF3_EGFRWT cells; 72 h,1500 to 5000 nM
same,IC50,BaF3_HER2WT cells; 72 h,< 200 nM
"C=CC(=O)N1CC(c2ccn3ncnc(Nc4ccc(Oc5ccn6ncnc6c5)c(C)c4)c23)C1 [Example 3, 1-(3-(4-((4-([1,2,4]triazolo[1,5-a]pyridin-7-yloxy)-3-methylphenyl)amino)pyrrolo[2,1-f][1,2,4]triazin-5-yl)azetidin-1-yl)prop-2-en-1-one]",IC50,BaF3_HER2YVMA cells; 72 h,< 200 nM
same,IC50,BaF3_EGFRWT cells; 72 h,500 to 1500 nM
same,IC50,BaF3_HER2WT cells; 72 h,< 200 nM
"Cc1cc(Nc2c(C#N)cnn3ccc(C4CN(C(=O)/C=C/CN(C)C)C4)c23)ccc1Oc1ccn2ncnc2c1 [Example 86, (E)-4-((4-([1,2,4]triazolo[1,5-a]pyridin-7-yloxy)-3-methylphenyl)amino)-5-(1-(4-(dimethylamino)-but-2-enoyl)azetidin-3-yl)pyrrolo[1,2-b]pyridazine-3-carbonitrile]",IC50,BaF3_HER2YVMA cells; 72 h,> 5000 nM
same,IC50,BaF3_EGFRWT cells; 72 h,1500 to 5000 nM
same,IC50,BaF3_HER2WT cells; 72 h,1500 to 5000 nM
"Cc1cc(Nc2ncnn3ccc(C4CCN(C(=O)/C=C/CN5CCN(C)CC5)CC4)c23)ccc1Oc1ccn2ncnc2c1 [Example 24, (E)-1-(4-(4-((4-([1,2,4]triazolo[1,5-a]pyridin-7-yloxy)-3-methylphenyl)amino)pyrrolo[2,1-f][1,2,4]triazin-5-yl)piperidin-1-yl)-4-(4-methylpiperazin-1-yl)but-2-en-1-one]",IC50,BaF3_HER2YVMA cells; 72 h,500 to 1500 nM
same,IC50,BaF3_EGFRWT cells; 72 h,1500 to 5000 nM
same,IC50,BaF3_HER2WT cells; 72 h,< 200 nM
"COC1CCN(C/C=C/C(=O)N2CC(c3ccn4ncnc(Nc5ccc(Oc6ccn7ncnc7c6)c(C)c5)c34)C2)CC1 [Example 42, (E)-1-(3-(4-((4-([1,2,4]triazolo[1,5-a]pyridin-7-yloxy)-3-methylphenyl)amino)pyrrolo[2,1-f][1,2,4]triazin-5-yl)azetidin-1-yl)-4-(4-methoxypiperidin-1-yl)but-2-en-1-one]",IC50,BaF3_HER2YVMA cells; 72 h,< 200 nM
same,IC50,BaF3_EGFRWT cells; 72 h,1500 to 5000 nM
same,IC50,BaF3_HER2WT cells; 72 h,< 200 nM
"Cc1cc(Nc2ncnn3ccc(C4CCN(C(=O)C#CCN(C)C)CC4)c23)ccc1Oc1ccn2ncnc2c1 [Example 64, 1-(4-(4-((4-([1,2,4]triazolo[1,5-a]pyridin-7-yloxy)-3-methylphenyl)amino)pyrrolo[2,1-f][1,2,4]triazin-5-yl)piperidin-1-yl)-4-(dimethylamino)but-2-yn-1-one]",IC50,BaF3_HER2YVMA cells; 72 h,< 200 nM
same,IC50,BaF3_EGFRWT cells; 72 h,200 to 500 nM
same,IC50,BaF3_HER2WT cells; 72 h,< 200 nM
"C=CC(=O)NC1CCCN(c2ccn3ncnc(Nc4ccc(Oc5ccn6ncnc6c5)c(C)c4)c23)C1 (stereo not drawn) [Example 76, N-(1-(4-((4-([1,2,4]triazolo[1,5-a]pyridin-7-yloxy)-3-methylphenyl)amino)pyrrolo[2,1-f][1,2,4]triazin-5-yl)piperidin-3-yl)acrylamide]",IC50,BaF3_HER2YVMA cells; 72 h,500 to 1500 nM
same,IC50,BaF3_EGFRWT cells; 72 h,1500 to 5000 nM
same,IC50,BaF3_HER2WT cells; 72 h,< 200 nM
"Cc1cc(Nc2ncnn3ccc(C4CC5CCC4CN5C(=O)/C=C/CN(C)C)c23)ccc1Oc1ccn2ncnc2c1 (single isomer, unassigned; first eluting) [Examples 137 and 138, first eluting isomer]",IC50,BaF3_HER2YVMA cells,200 to 500 nM
same,IC50,BaF3_EGFRWT cells,1500 to 5000 nM
same,IC50,BaF3_HER2WT cells,< 200 nM
"C#CCN(C)C/C=C/C(=O)N1CCC(c2ccn3ncnc(Nc4ccc(Oc5ccn6ncnc6c5)c(C)c4)c23)CC1 [Example 59, (E)-1-(4-(4-((4-([1,2,4]triazolo[1,5-a]pyridin-7-yloxy)-3-methylphenyl)amino)pyrrolo[2,1-f][1,2,4]triazin-5-yl)piperidin-1-yl)-4-(methyl(prop-2-yn-1-yl)amino)but-2-en-1-one]",IC50,BaF3_HER2YVMA cells; 72 h,200 to 500 nM
same,IC50,BaF3_EGFRWT cells; 72 h,1500 to 5000 nM
same,IC50,BaF3_HER2WT cells; 72 h,< 200 nM
"C=CC(=O)N1CCC2CCC(C1)N2c1ccn2ncnc(Nc3ccc(Oc4ccn5ncnc5c4)c(C)c3)c12 (stereo not drawn) [Example 55, 1-(9-(4-((4-([1,2,4]triazolo[1,5-a]pyridin-7-yloxy)-3-methylphenyl)amino)pyrrolo[2,1-f][1,2,4]triazin-5-yl)-3,9-diazabicyclo[4.2.1]nonan-3-yl)prop-2-en-1-one]",IC50,BaF3_HER2YVMA cells; 72 h,500 to 1500 nM
same,IC50,BaF3_EGFRWT cells; 72 h,1500 to 5000 nM
same,IC50,BaF3_HER2WT cells; 72 h,< 200 nM
"C=CC(=O)N1CC2(CC(c3ccn4ncnc(Nc5ccc(Oc6ccn7ncnc7c6)c(C)c5)c34)C2)C1 [Example 17, 1-(6-(4-((4-([1,2,4]triazolo[1,5-a]pyridin-7-yloxy)-3-methylphenyl)amino)pyrrolo[2,1-f][1,2,4]triazin-5-yl)-2-azaspiro[3.3]heptan-2-yl)prop-2-en-1-one]",IC50,BaF3_HER2YVMA cells; 72 h,< 200 nM
same,IC50,BaF3_EGFRWT cells; 72 h,1500 to 5000 nM
same,IC50,BaF3_HER2WT cells; 72 h,< 200 nM
